How the values were obtained:
TBA2.1 and 5×FAD mice [1] = assay: Novel object recognition and location; format: in vivo, mouse
Description: (§1) . For TBA2.1 mice (both sexes), treatment started at the age of 4 weeks. The animals were group housed and force fed for 4 weeks. […] Treatment in 5×FAD male mice started at the age of 12 weeks. Here, animals were single housed right away and given a choice between voluntary and forced feeding. […] During the course of the 7th week of treatment, animals were either subjected to perfusion to obtain their brains for subsequent immunohistochemistry or they were culled to obtained native brains for electrophysiological recordings.
The hippocampus-dependent memory was assessed using a novel object location and novel object recognition tasks. Assays were performed as described elsewhere (Andres-Alonso et al., 2019). Briefly, training and testing were done in an open field square arena made out of plastic (50 cm×50 cm). The mice were habituated in the empty arena for 20 min. Subsequently, 2 identical objects were introduced to the maze and the animals could explore the objects in 2 training session, 20 min each. 2 h afterwards, in the memory test phase, one object was replaced with an unfamiliar, unknown object (novel object recognition). Afterwards, the location of one object was changed ([…]). During all sessions, the amount of time the animals explored the objects was recorded, and a discrimination index was calculated using the formula DI=[(Tnew−Tfamiliar)/(Tnew+Tfamiliar)]*100. The arena was cleaned with 5% ethanol before and after each animal was tested.

TBA2.1 mice = assay: Neuronal loss (NeuN-positive cells) in CA1 after oral Nitarsone; format: in vivo, mouse; conditions: versus vehicle-treated littermates
Protocol: Animals were anesthetized with ketamine/xylazine (Medistar) and transcardially perfused with 0.9% saline followed by 4% PFA. The brains were post-fixed in 4% PFA in PBS overnight, followed by immersion in 0.5 M sucrose for 24 h and then 1M sucrose for another 1 to 2 days or until the brains were sunken down. The brains were snap-frozen and cut into 35 μm thick coronal cryosections (Leica CM3050S, Leica-Microsystems). The sections were blocked in a buffer (0.3% TX-100, 10% NGS in PBS) for 30 min at RT, and incubated with primary antibodies diluted in the blocking solution, overnight at 4° C. Secondary antibodies were applied for 2 h at RT. Sections were counterstained with DAPI and mounted in Mowiol 4-88 (Merck Chemicals). For the detection of Aβ, the heat-based antigen retrieval method was used. […]
All quantifications were done within the distal CA1 region of the hippocampus. […] CREB and pCREB immunoreactivity of every single nucleus in a 100 μm stretch was measured in arbitrary units of pixel intensity. […] The neuronal loss was quantified based on NeuN staining (the number of neurons/CA1 length). For the quantification of microglia and astrocytes the number of cells based on overlaid DAPI and Iba-1 or GFAP signal was quantified within the rectangular ROI. Aβ plaques were counted in the region where the neuronal loss was quantified.

GluA1 AMPA-receptors = assay: Synaptic surface expression of GluA1 AMPA-receptors in hippocampal neurons; format: cell-based, rat; conditions: 5 μM Nitarsone with 500 nM Aβ1-42, 48 h
Protocol: Hippocampal and cortical cultures were prepared from Wistar rat embryos (E18) of mixed sex as described previously (Spilker et al., 2016). Briefly, dissected were digested for 15 min with trypsin at 37° C. Neurons were plated on plastic 12-well dishes (Greiner) on glass coverslips coated with poly-L-lysine (Sigma-Aldrich) at a density of 60 000 cells/well in DMEM medium (Gibco, Thermo Fisher Scientific) supplemented with 10% FCS, 1× penicillin/streptomycin, and 2 mM glutamine. After 1 h incubation (at the 37° C., 5% CO2, 95% humidity) cells were kept in BrainPhys medium supplemented with 1% SM1 (Stemmcell Technologies), 0.5 mM Glutamine (Gibco) at 37° C., 5% CO2 and 95% humidity. […]
For quantitation of nuclear staining intensity (pCREB or CREB) somatic regions were sequentially scanned using the 63× objective (Leica) in both: Leica TCS SP8-STED and Leica TCS SP5 systems. […] Unprocessed images were analysed using Fiji/ImageJ software (Schindelin et al., 2012). For visualization of the quantified channel a fire look-up table (LUT) was used. Synaptic density was quantified in secondary dendrites using Fiji/ImageJ (Schindelin et al., 2012). […] Intensity of the GluA1 channel was measured in ROIs defined by a Shank3 mask as a readout for surface AMPAR expression.

TBA2.1 and 5×FAD mice [2] = assay: Y-maze object recognition short-term memory task; format: in vivo, mouse; conditions: 3 h between training and test, versus vehicle
Description: as §1
Y-maze Object Recognition short-term memory task was performed according to (Creighton et al., 2019). During training session, two identical objects (3D printed rectangle) were placed at the end of arms B and C and the animal was left to explore both objects for 10 min. In order to assess short-term memory, retrieval performance was tested 3 h after training with one of the familiar objects replaced by a novel one (wooden cube). The mice were placed in the arena, and had 5 min to explore both objects. During both sessions the time animals explored the objects was scored, and a discrimination index was calculated, in the same manner as for the novel object recognition test.

O=[N+]([O-])c1ccc([As](=O)(O)O)cc1 [Nitarsone, (4-nitrophenyl) arsonic acid]
memory in novel location recognition task (TBA2.1 and 5×FAD mice [1]; 5×FAD mice): rescued memory
memory in novel object recognition task (TBA2.1 and 5×FAD mice [1]; 5×FAD mice): rescued memory
memory in novel location recognition task (TBA2.1 and 5×FAD mice [1]; TBA2.1 mice): rescued memory
memory in novel object recognition task (TBA2.1 and 5×FAD mice [1]; TBA2.1 mice): rescued memory
early neuronal cell loss (TBA2.1 mice): reduced
downscaling of synaptic surface expression of GluA1 AMPA-receptors (GluA1 AMPA-receptors): significantly attenuated
discrimination performance, Y-maze object recognition (TBA2.1 and 5×FAD mice [2]; 5×FAD mice): improved discrimination performance
discrimination performance, Y-maze object recognition (TBA2.1 and 5×FAD mice [2]; TBA2.1 mice): improved discrimination performance
